Assay: caloric availability by in vivo animal feeding study (body weight gain)
Design: species or system Sprague-Dawley rats
Settings: rats, diet of 50% fort and 21% test compound, 14 days
Description: This example illustrates how the novel fat mimetics of this invention are screened for caloric availability by a carefully controlled in vivo animal feeding study.
An experimental relationship between total calories ingested and animal body weight gain is established by monitoring the body weight gain associated with consumption of a nutritionally balanced diet containing varying concentrations of a reference substance such as corn oil which has a known caloric availability. Correlations between total calories ingested and body weight gain are excellent (r=0.99).
Caloric availability of a test material is evaluated by substituting a specific weight of the test material for the reference substance and observing the body weight gain. The gain in body weight is equated to a total number of calories using the correlation previously established for the reference data. The estimated number of calories ingested are divided by the weight of test material to give the apparent calories per gram for the test material. Generally speaking, in these bioavailability studies, the degree of perianal pelt soiling correlates with reduced bioavailability.
The test animals are six-week-old male Sprague-Dawley rats obtained from the Portage, Michigan facility of the Charles River Laboratories, Inc. After acclimation for 15 days, the test duration is 14 days. […]

CCCCCCCC/C=C\CCCCCCCC(=O)NCC(COC(=O)CCCCCCC/C=C\CCCCCCCC)OC(=O)CCCCCCC/C=C\CCCCCCCC (stereo not shown) [Example 2, 2,3-s(oleyoyloxy)propyl oleamide]
calories upon being metabolized (apparent calories per gram): about 3.3 kcal/gram
